Data reported in PubChem BioAssay (NCI).
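Each compound was tested at five concentrations against cells in 96-well plates for 48 hours. GI50: concentration for 50% inhibition of growth. TGI is the concentration that stops growth completely.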

How the values were obtained:
Test in all cases: growth of human tumour cells (NCI), 48 h
MOLT-4 leukemia = system: MOLT-4 leukemia
HCT-116 colon = system: HCT-116 colon
SN12C renal = system: SN12C renal
OVCAR-5 ovarian = system: OVCAR-5 ovarian
MDA-MB-435 = system: MDA-MB-435
SF-295 CNS = system: SF-295 CNS
UACC-257 melanoma = system: UACC-257 melanoma
U251 CNS = system: U251 CNS
PC-3 prostate = system: PC-3 prostate
EKVX NSCLC = system: EKVX NSCLC
OVCAR-3 ovarian = system: OVCAR-3 ovarian
SNB-19 CNS = system: SNB-19 CNS
HS 578T breast = system: HS 578T breast
HL-60(TB) leukemia = system: HL-60(TB) leukemia
UACC-62 melanoma = system: UACC-62 melanoma
NCI-H23 lung = system: NCI-H23 lung
K-562 leukemia = system: K-562 leukemia
A549 NSCLC = system: A549 NSCLC
LOX IMVI melanoma = system: LOX IMVI melanoma
OVCAR-4 ovarian = system: OVCAR-4 ovarian
SW-620 colon = system: SW-620 colon
TK-10 renal = system: TK-10 renal
MDA-MB-231 breast = system: MDA-MB-231 breast
SK-OV-3 ovarian = system: SK-OV-3 ovarian
A498 renal = system: A498 renal
NCI-H522 lung = system: NCI-H522 lung
MALME-3M melanoma = system: MALME-3M melanoma
BT-549 breast = system: BT-549 breast
RPMI-8226 leukemia = system: RPMI-8226 leukemia
HT29 colon = system: HT29 colon
SF-268 CNS = system: SF-268 CNS
SK-MEL-28 melanoma = system: SK-MEL-28 melanoma
HOP-62 NSCLC = system: HOP-62 NSCLC
HOP-92 NSCLC = system: HOP-92 NSCLC
NCI-H226 lung = system: NCI-H226 lung
CAKI-1 renal = system: CAKI-1 renal
HCC-2998 colon = system: HCC-2998 colon
SK-MEL-5 melanoma = system: SK-MEL-5 melanoma
786-0 renal = system: 786-0 renal
IGROV1 ovarian = system: IGROV1 ovarian
SK-MEL-2 melanoma = system: SK-MEL-2 melanoma
RXF 393 renal = system: RXF 393 renal
M14 melanoma = system: M14 melanoma
DU-145 prostate = system: DU-145 prostate
OVCAR-8 ovarian = system: OVCAR-8 ovarian
KM12 colon = system: KM12 colon
SR leukemia = system: SR leukemia
SF-539 CNS = system: SF-539 CNS
T-47D breast = system: T-47D breast
SNB-75 CNS = system: SNB-75 CNS

Molecule `COC12C=C/C(=C(/C(=O)OCc3ccccn3)C(=O)CCCCCCCCC3(OC)C=C/C(=C(/C(=O)OCc4ccccn4)C(=O)CCCCCCCC1)O3)O2` has a GI50 (MOLT-4 leukemia) of 301 nM, a TGI (MOLT-4 leukemia) of over 100000 nM and a GI50 (HCT-116 colon) of 223 nM. The TGI (HCT-116 colon) was 470 nM, the GI50 (SN12C renal) was 356 nM and the TGI (SN12C renal) was 1210 nM. It also gave a GI50 (OVCAR-5 ovarian) of 538 nM, a TGI (OVCAR-5 ovarian) of 5620 nM and a GI50 (MDA-MB-435) of 209 nM. For the same molecule, the TGI (MDA-MB-435) was 480 nM, the GI50 (SF-295 CNS) was 397 nM and the TGI (SF-295 CNS) was 2150 nM. For the same molecule, the GI50 (UACC-257 melanoma) was 1050 nM, the TGI (UACC-257 melanoma) was 4270 nM and the GI50 (U251 CNS) was 386 nM. It also gave a TGI (U251 CNS) of 1520 nM, a GI50 (PC-3 prostate) of 719 nM and a TGI (PC-3 prostate) of 3980 nM. It also gave a GI50 (EKVX NSCLC) of 614 nM, a TGI (EKVX NSCLC) of 3720 nM and a GI50 (OVCAR-3 ovarian) of 326 nM. It also gave a TGI (OVCAR-3 ovarian) of 1100 nM, a GI50 (SNB-19 CNS) of 1430 nM and a TGI (SNB-19 CNS) of over 100000 nM. The GI50 (HS 578T breast) was 783 nM, the TGI (HS 578T breast) was over 100000 nM and the GI50 (HL-60(TB) leukemia) was 306 nM. For the same molecule, the TGI (HL-60(TB) leukemia) was 2170 nM, the GI50 (UACC-62 melanoma) was 348 nM and the TGI (UACC-62 melanoma) was 1220 nM. For the same molecule, the GI50 (NCI-H23 lung) was 249 nM, the TGI (NCI-H23 lung) was 689 nM and the GI50 (K-562 leukemia) was 331 nM. For the same molecule, the TGI (K-562 leukemia) was over 100000 nM, the GI50 (A549 NSCLC) was 626 nM and the TGI (A549 NSCLC) was 3490 nM. For the same molecule, the GI50 (LOX IMVI melanoma) was 188 nM, the TGI (LOX IMVI melanoma) was 417 nM and the GI50 (OVCAR-4 ovarian) was 332 nM. It also gave a TGI (OVCAR-4 ovarian) of 2280 nM, a GI50 (SW-620 colon) of 385 nM and a TGI (SW-620 colon) of 2090 nM. The GI50 (TK-10 renal) was 1690 nM, the TGI (TK-10 renal) was 4190 nM and the GI50 (MDA-MB-231 breast) was 485 nM. The TGI (MDA-MB-231 breast) was over 100000 nM, the GI50 (SK-OV-3 ovarian) was 889 nM and the TGI (SK-OV-3 ovarian) was 60900 nM. It also gave a GI50 (A498 renal) of 1060 nM, a TGI (A498 renal) of 2290 nM and a GI50 (NCI-H522 lung) of 345 nM. The TGI (NCI-H522 lung) was 1710 nM, the GI50 (MALME-3M melanoma) was 325 nM and the TGI (MALME-3M melanoma) was 1380 nM. The GI50 (BT-549 breast) was 401 nM, the TGI (BT-549 breast) was 2070 nM and the GI50 (RPMI-8226 leukemia) was 371 nM. It also gave a TGI (RPMI-8226 leukemia) of 1850 nM, a GI50 (HT29 colon) of 423 nM and a TGI (HT29 colon) of 2890 nM. For the same molecule, the GI50 (SF-268 CNS) was 1120 nM, the TGI (SF-268 CNS) was 4810 nM and the GI50 (SK-MEL-28 melanoma) was 481 nM. The TGI (SK-MEL-28 melanoma) was 3620 nM, the GI50 (HOP-62 NSCLC) was 318 nM and the TGI (HOP-62 NSCLC) was 1060 nM. The GI50 (HOP-92 NSCLC) was 1650 nM, the TGI (HOP-92 NSCLC) was 3540 nM and the GI50 (NCI-H226 lung) was 250 nM. It also gave a TGI (NCI-H226 lung) of 648 nM, a GI50 (CAKI-1 renal) of 481 nM and a TGI (CAKI-1 renal) of 3400 nM. The GI50 (HCC-2998 colon) was 212 nM, the TGI (HCC-2998 colon) was 518 nM and the GI50 (SK-MEL-5 melanoma) was 221 nM. The TGI (SK-MEL-5 melanoma) was 492 nM, the GI50 (786-0 renal) was 326 nM and the TGI (786-0 renal) was 1050 nM. It also gave a GI50 (IGROV1 ovarian) of 421 nM, a TGI (IGROV1 ovarian) of 3730 nM and a GI50 (SK-MEL-2 melanoma) of 1180 nM. The TGI (SK-MEL-2 melanoma) was 3850 nM, the GI50 (RXF 393 renal) was 192 nM and the TGI (RXF 393 renal) was 357 nM. The GI50 (M14 melanoma) was 252 nM, the TGI (M14 melanoma) was 571 nM and the GI50 (DU-145 prostate) was 564 nM. It also gave a TGI (DU-145 prostate) of 1870 nM, a GI50 (OVCAR-8 ovarian) of 406 nM and a TGI (OVCAR-8 ovarian) of over 100000 nM. The GI50 (KM12 colon) was 354 nM, the TGI (KM12 colon) was 1390 nM and the GI50 (SR leukemia) was 364 nM. For the same molecule, the TGI (SR leukemia) was over 100000 nM, the GI50 (SF-539 CNS) was 557 nM and the TGI (SF-539 CNS) was 3200 nM. For the same molecule, the GI50 (T-47D breast) was 588 nM, the TGI (T-47D breast) was 6240 nM and the GI50 (SNB-75 CNS) was 827 nM. It also gave a TGI (SNB-75 CNS) of 2370 nM.
